Reference: US20120295907A1, “INSECTICIDAL COMPOUNDS” (SYNGENTA CROP PROTECTION, LLC, priority 2009, published 2012)

Assays:
Assay type in all cases: in vivo
[1] = system: Spodoptera littoralis; test: Spodoptera littoralis (Egyptian Cotton Leafworm) cotton leaf disc spray test; settings: foliar, 72 h, 200 ppm spray on cotton leaf discs, L1 larvae, mortality, feeding behavior, growth regulation 3 DAT
[2] = system: Heliothis virescens; test: Heliothis virescens (Tobacco Budworm) egg test on artificial diet; settings: 96 h, 200 ppm (concentration in well 18 ppm), eggs 0-24 h old on artificial diet, 4 days, egg mortality, larval mortality, growth regulation
[3] = system: Plutella xylostella; test: Plutella xylostella (Diamond Back Moth) artificial diet MTP test; settings: 144 h, 200 ppm (concentration in well 18 ppm), L2 larvae, 6 days, larval mortality, growth regulation
[4] = system: Diabrotica balteata; test: Diabrotica balteata (Corn Root Worm) artificial diet MTP test; settings: 120 h, 200 ppm (concentration in well 18 ppm), L2 larvae, 5 days, larval mortality, growth regulation
[5] = system: Thrips tabaci; test: Thrips tabaci (Onion Thrips) sunflower leaf disc spray test; settings: foliar, 168 h, 200 ppm spray on sunflower leaf discs, population of mixed ages, 7 days, mortality
[6] = system: Tetranychus urticae; test: Tetranychus urticae (Two-Spotted Spider Mite) bean leaf disc spray test; settings: foliar, 192 h, 200 ppm spray on bean leaf discs, mite populations of mixed ages, 8 days, egg, larval and adult mortality, read-out: control of Tetranychus urticae
[7] = system: Myzus persicae; test: Myzus persicae (Green Peach Aphid) sunflower leaf disc spray test; settings: foliar, 144 h, 200 ppm spray on sunflower leaf discs, aphid population of mixed ages, 6 DAT, mortality

Measured: pest or weed control at 200 ppm

COc1c(NC(=O)c2ccc(C#N)cc2)cccc1C(=O)Nc1c(Cl)cc(C(F)(C(F)(F)F)C(F)(F)C(F)(F)F)cc1Cl (stereo not drawn) [C6]
≥ 80%: all assays above

COc1c(NC(=O)c2ccc(C(F)(F)F)cc2)cccc1C(=O)Nc1c(Cl)cc(C(F)(C(F)(F)F)C(F)(F)F)cc1Cl [E13]
≥ 80%: all assays above

CCc1cc(C(F)(C(F)(F)F)C(F)(F)C(F)(F)F)cc(C)c1NC(=O)c1cccc(NC(=O)c2ccc(C#N)cc2)c1OC (stereo not drawn) [A4, N-[2-ethyl-4-(1,2,2,3,3,3-hexafluoro-1-trifluoromethylpropyl)-6-methyl-phenyl]-3-(4-cyanobenzoylamino)-2-methoxybenzamide]
≥ 80%: all assays above

COc1c(NC(=O)c2cccc(Cl)c2C)cccc1C(=O)Nc1c(Cl)cc(C(F)(C(F)(F)F)C(F)(F)C(F)(F)F)cc1Br (stereo not drawn) [B156]
≥ 80%: all assays above

COc1c(NC(=O)c2csnc2C)cccc1C(=O)Nc1c(Cl)cc(C(F)(C(F)(F)F)C(F)(F)C(F)(F)F)cc1Br (stereo not drawn) [B98]
not listed: [5]
≥ 80%: all other assays above

COc1c(NC(=O)c2c(F)cc(C#N)cc2F)cccc1C(=O)Nc1c(Cl)cc(C(F)(C(F)(F)F)C(F)(F)F)cc1Br [G4]
not listed: [5]
≥ 80%: all other assays above

COc1c(NC(=O)c2ccc([N+](=O)[O-])cc2)cccc1C(=O)Nc1c(Cl)cc(C(F)(C(F)(F)F)C(F)(F)C(F)(F)F)cc1Br (stereo not drawn) [B7]
not listed: [4] | [5]
≥ 80%: all other assays above

COc1c(NC(=O)c2ccc(F)cc2)cccc1C(=O)Nc1c(Cl)cc(C(F)(C(F)(F)F)C(F)(F)C(F)(F)F)cc1Br (stereo not drawn) [B19]
not listed: [4] | [5]
≥ 80%: all other assays above

COc1c(NC(=O)c2ccncc2)cccc1C(=O)Nc1c(Cl)cc(C(F)(C(F)(F)F)C(F)(F)C(F)(F)F)cc1Br (stereo not drawn) [B54]
not listed: [2]
≥ 80%: all other assays above

COc1c(NC(=O)c2c(F)cc(F)cc2F)cccc1C(=O)Nc1c(Cl)cc(C(F)(C(F)(F)F)C(F)(F)F)cc1Br [G3]
not listed: [5]
≥ 80%: all other assays above

COc1c(NC(=O)c2ccc(C#N)cc2)cccc1C(=O)Nc1c(Cl)cc(C(F)(C(F)(F)F)C(F)(F)C(F)(F)F)cc1Br (stereo not drawn) [B6]
not listed: [4] | [5]
≥ 80%: all other assays above

COc1c(NC(=O)c2ccc(C(F)(F)F)cc2)cccc1C(=O)Nc1c(Cl)cc(C(F)(C(F)(F)F)C(F)(F)C(F)(F)F)cc1Br (stereo not drawn) [B15]
not listed: [4] | [5]
≥ 80%: all other assays above

COc1c(NC(=O)c2ccccc2Cl)cccc1C(=O)Nc1c(Cl)cc(C(F)(C(F)(F)F)C(F)(F)C(F)(F)F)cc1Br (stereo not drawn) [B5]
not listed: [5]
≥ 80%: all other assays above

COc1c(NC(=O)c2c(F)cc(F)cc2F)cccc1C(=O)Nc1c(Cl)cc(C(F)(C(F)(F)F)C(F)(F)C(F)(F)F)cc1Br (stereo not drawn) [B189, N-{3-[2-Bromo-6-chloro-4-(1,2,2,3,3,3-hexafluoro-1-trifluoromethylpropyl)-phenylcarbamoyl]-2-methoxyphenyl}-2,4,6-trifluorobenzamide]
not listed: [4] | [5]
≥ 80%: all other assays above

COc1ccc(C(=O)Nc2cccc(C(=O)Nc3c(Cl)cc(C(F)(C(F)(F)F)C(F)(F)C(F)(F)F)cc3Br)c2OC)cc1 (stereo not drawn) [B28]
not listed: [2]
≥ 80%: all other assays above

COc1c(NC(=O)c2ccc(F)cc2Cl)cccc1C(=O)Nc1c(Cl)cc(C(F)(C(F)(F)F)C(F)(F)F)cc1Br [G5]
not listed: [5]
≥ 80%: all other assays above

COc1c(NC(=O)c2ccc(C)cc2)cccc1C(=O)Nc1c(Cl)cc(C(F)(C(F)(F)F)C(F)(F)C(F)(F)F)cc1Br (stereo not drawn) [B8]
not listed: [4] | [5]
≥ 80%: all other assays above

CCc1cc(C(F)(C(F)(F)F)C(F)(F)C(F)(F)F)cc(C)c1NC(=O)c1cccc(NC(=O)c2ccc([N+](=O)[O-])cc2C)c1OC (stereo not drawn) [A22]
not listed: [2]
≥ 80%: all other assays above

CCc1cc(C(F)(C(F)(F)F)C(F)(F)C(F)(F)F)cc(C)c1NC(=O)c1cccc(NC(=O)c2ccc(F)cc2Cl)c1OC (stereo not drawn) [A3, N-[2-ethyl-4-(1,2,2,3,3,3-hexafluoro-1-trifluoromethylpropyl)-6-methylphenyl]-3-(4-fluoro-2-chlorobenzoylamino)-2-methoxybenzamide]
not listed: [2] | [3]
≥ 80%: all other assays above

CCc1cc(C(F)(C(F)(F)F)C(F)(F)F)cc(C)c1NC(=O)c1cccc(NC(=O)c2ccc(F)cc2Cl)c1OC [J27]
not listed: [1]
≥ 80%: all other assays above
